Laboratory results reported in patent publication US20040097740A1, “Method for producing delta 1-pyrrolines” (priority 2000, published 2004).
Like-named read-outs stand apart in the source and are kept apart here.

What was measured:
[1] = log P determination by HPLC on reverse-phase column (C 18), EEC Directive 79/831 Annex V.A8; assay type: physicochemical; conditions: 43° C.; for chromatographic logP: reverse-phase HPLC column (C 18)
Description: The determination is carried out in the acidic range at pH 2.3 using the mobile phases 0.1% aqueous phosphoric acid and acetonitrile; linear gradient from 10% acetonitrile to 90% acetonitrile.

[2] = pH 2.3, pH 2.3, preparation example, 0.1% aqueous phosphoric acid/acetonitrile gradient, read-out: HPLC: log P (pH 2.3)

Row | Structure (SMILES) | HPLC: log P (pH 2.3) ([1]; pH 2.3, preparation example, 0.1% aqueous phosphoric acid/acetonitrile gradient) | chromatographic logP [1, 2] | melting point [°C] | chromatographic logP ([1]; pH 2.3, haloketones of the formula (III), acidic range pH 2.3, read-out: logP*) | chromatographic logP ([1]; pH 2.3, azides of the formula (II), acidic range pH 2.3, read-out: logP*)
1 | Fc1cccc(F)c1C1=NC(c2ccc(Br)cc2)CC1 (stereo not drawn) [Example I-1, 2-(4-bromophenyl)-5-(2,6-difluorophenyl)-3,4-dihydro-2H-pyrrole] | 2.71 | 2.72 | 48 | – | –
2 | O=C(CCC(Cl)c1ccc(Br)cc1)c1c(F)cccc1F (stereo not drawn) [III-1, 4-(4-bromophenyl)-4-chloro-1-(2,6-difluorophenyl)-1-butanone] | – | 4.52 | – | 4.43 | –
3 | O=C(/C=C/c1ccc(Br)cc1)c1c(F)cccc1F [VI-1, (2E)-3-(4-bromophenyl)-1-(2,6-difluorophenyl)-2-propen-1-one] | – | – | 71 | – | –
4 | O=C(c1c(F)cccc1F)C1CC1c1ccc(Br)cc1 (stereo not drawn) [Example V-1, [2-(4-bromophenyl)cyclopropyl](2,6-difluorophenyl)methanone] | – | – | 64 to 65 | – | –
5 | [N-]=[N+]=NC(CCC(=O)c1c(F)cccc1F)c1ccc(Br)cc1 (stereo not drawn) [II-1, 4-(4-bromophenyl)-4-azido-1-(2,6-difluorophenyl)-1-butanone] | – | 4.47 | – | – | 4.47
